In ChEMBL document CHEMBL3046460, “Preparation of Dinotefuran Related Compounds and Agonistic Action on SAD2 Hybrid Nicotinic Acetylcholine Receptors Expressed in Xenopus laevis Oocytes” (J Pestic Sci, 2002):

Experiment: Agonist activity at Drosophila melanogaster SAD/chicken beta2 nAChR expressed in Xenopus laevis oocytes assessed as inward current by two-electrode voltageclamp technique
Type: cell-based

Structure (SMILES) | EC50 [µM]
CC(=O)OCC[N+](C)(C)C [ACETYLCHOLINE] | 20
CN/C(=N/CC1CCOC1)N[N+](=O)[O-] (centres undefined) [DINOTEFURAN] | 224
O=[N+]([O-])/N=C1\NCCN1CC1CCOC1 (centres undefined) | 148
O=[N+]([O-])/N=C1\NCCN1Cc1ccc(Cl)nc1 [IMIDACLOPRID] | 2.82
